Tests used:
[1] = ex vivo or in vivo, depending on cell environment or azoreductase expression; cited from earlier work
Description: Acting via the NPR-A receptor to generate cGMP, TOP271 allows the reversible photocontrol of contraction/dilation in aortic tissue, as well as Ca^2+ oscillations in rodent islets of Langerhans. Although photodependent cGMP synthesis was described earlier, these approaches rely on the genetically-encoded photosensitive proteins EROS[64],[65] or BeCyclOps,[66],[67] whereas TOP271 allows unprecedented photocontrolled cGMP synthesis in nativ ...

[2] = in benzene at 0 °C; cited from earlier work
Description: As expected for an electron-poor azobenzene, all peptides were bistable (TOP271 Fig. 2c, TOP263-270 ESI Fig. 3 ^†). ^¶ ¶All peptides are available for academic use from the Hoffmann-Röder lab upon request. This advantageous trait allows samples to be pre-illuminated prior to application rather than needing constant illumination. […], and because the compounds were bistable, the initial back-relaxation was obtained as a linear function from the first 30 min after ceasing illumination. P ...

[3] = tested on: pancreatic beta cells in islets of Langerhans; experiment: Calcium imaging of beta cells in intact islets of Langerhans; type: cell-based, CD1 mice; details: for effect on amplitude of intracellular Ca2+ fluxes in beta cells, in words: intact islets, 8 mM glucose, ANP 0.1–100 nM, TOP271 isomers 1–100 nM, n = 4–6 islets for each concentration
Description: Reversibility could be achieved by applying cis-TOP271 and then illuminating with blue light (λ = 458–482 nm) to induce trans-isomerisation (Fig. 4i and j). Restoration of beta cell function was only partial (Fig. 4j), however, possibly due to cGMP-mediated sequestration of Ca^2+ into internal stores such as the endoplasmic reticulum.[61] […]
CD1 mice were maintained in a specific pathogen-free facility under a 12 h light–dark cycle with ad libitum access to water and food. Animals were euthanized by cervical dislocation and islets isolated using collagenase digestion. Islets were cultured overnight in Roswell Park Memorial Institute (RPMI) medium supplemented with 10% foetal calf serum and 100 U/mL penicillin and 100 µg/mL streptomycin. No randomization was used for animal experimentation, since mice were only used as tissue donors.
Experimental protocols were approved by the University of Birmingham's Animal Welfare and Ethical Review Body (AWERB) and carried out in accordance with the Animals (Scientific Procedures) Act 1986 of the United Kingdom.
Islets were loaded for 40 min with Fluo8 (AAT Bioquest, Sunnyvale, CA, USA), before imaging using a Crest X-Light spinning disk head coupled to a Nikon Ti-E automated base and 10 x/0.4 NA objective. Pulsed excitation was delivered at λ = 458–482 nm (400 ms exposure; 0.33 Hz) via a Lumencor Spectra X Light Engine, and emitted signals detected at λ = 500–550 nm using a Photometrics Evolve Delta 512 EMCCD.
Illumination to induce photoswitching was performed using either continuous exposure to λ = 458–482 nm or λ = 382–407 nm. In all cases, HEPES-bicarbonate buffer was used, containing in mM: 120 NaCl, 4.8 KCl, 24 NaHCO3, 0.5 Na2HPO4, 5 HEPES, 2.5 CaCl2, 1.2 MgCl2, 8 D-glucose. Ca2+ traces were normalized as F/Fmin (F = fluorescence at any given timepoint; Fmin = minimum fluorescence) and relative change in this value over time denoted by a scale bar.
Non-multifactorial comparisons were made using Student’s t-test. Multifactorial comparisons were prepared using one-way ANOVA. Log-transformed concentration-response curves were fitted using non-linear regression and the Hill equation. All analyses were conducted using Graphpad Prism (Graphpad software) and IgorPro (WaveMetrics software), and results deemed significant * at P<0.05 or ** at P<0.01.

[4] = tested on: murine thoracic aortic rings; experiment: Aortic tensometry, pre-constricted aortic rings; parameters: species or system C57BL/6 mice; details: for vasodilation of pre-constricted aortic rings, in words: rings pre-contracted with 1 µM phenylephrine, 200 μM L-NAME and 3 μM diclofenac present, n = 6 aortic rings from 4 animals
Description: We next sought to address whether TOP271 would allow the optical control of cGMP-dependent processes in a physiologically relevant system, i.e. the aortic ring preparation. […] Accordingly, we predicted that TOP271 would allow reversible, light-controlled vasoactive responses, with cis-TOP271 being the stronger effector at specific concentrations. […] Although this concentration–response indicated a significant difference in receptor activation for 100 nM TOP271, we decided to use 400 nM TOP271 to trigger a stronger isomer-dependent vasodilation.
Fig. 3 TOP271 allows photocontrol of aortic tissue. (a) Concentration-response curves for trans- and cis-TOP271. (b) Aortic relaxation for cycles in (d) and (e). […] (d, e) Reversible photocontrol over aortic tension by application of trans-TOP271 (d) and cis-TOP271 (e) with UV-/blue and blue/UV-light (365 and 460 nm) cycles, respectively. All experiments were conducted in the presence of 200 μM N-ω-nitro-L-arginine methyl ester (L-NAME) and 3 μM diclofenac, which were used to block the vascular relaxants nitric oxide and prostacyclin, respectively. PE = phenylephrine was used for initial vasoconstriction, IBMX = 3-iso-butyl-1-methylxanthine was used to induce complete muscular relaxation as an end point control. (n = 6 aortic rings from 4 animals) (*P < 0.05, **P < 0.01, repeated measures Student's t-test). Values represent the mean ± SEM. […]
Murine thoracic aortic rings were mounted in a myograph as described recently16. In detail, thoracic aortas from C57BL/6 mice were explanted and cut into rings and mounted on fixed segment support pins in two four-chamber Myograph 610 (Danish Myo Technology, Aarhus, Denmark) containing 5 ml of Krebs–Henseleit solution (containing […]
glucose, pH 7.4), bubbled with 95% O2 and 5% CO2. Resting tension was set to 5 mN in the presence of Diclofenac (3 µM) and N-nitro-L-arginine methyl ester (L-NAME) (200 µM). After equilibration (45 minutes at 37 °C), rings were pre-contracted with 1 µM phenylephrine (PE). Since aortic ring myography is sensitive to temperature fluctuations, effects of direct and indirect illumination on vasoactivity were determined. […] The vasorelaxing effects of pre-illuminated cis- and dark trans-TOP271 were assessed once a steady plateau was reached. […]
were prepared (10 mM in water), of which an aliquot of TOP271 was either pre-illuminated at λ = 365 nm using a UVP 3UV benchtop UV lamp to obtain the cis-isomer, or kept in the dark to maintain the trans-isomer. […] Read-out was conducted in between illumination cycles as soon as a steady plateau was reached to exclude any light dilational effects. […]

NPR-A = molecular target: T1, NPR-A (Homo sapiens, UniProt P16066); experiment: cGMP assay (HTRF) in HEK293T cells transiently transfected with NPR-A; type: cell-based; details: in vitro
T1 construct: expressed in transfected cells; host or cells: HEK293t cells (DSMZ #305), transiently co-transfected with pCMV5_GC-A and YFP
T1 sequence (P16066 33-1061): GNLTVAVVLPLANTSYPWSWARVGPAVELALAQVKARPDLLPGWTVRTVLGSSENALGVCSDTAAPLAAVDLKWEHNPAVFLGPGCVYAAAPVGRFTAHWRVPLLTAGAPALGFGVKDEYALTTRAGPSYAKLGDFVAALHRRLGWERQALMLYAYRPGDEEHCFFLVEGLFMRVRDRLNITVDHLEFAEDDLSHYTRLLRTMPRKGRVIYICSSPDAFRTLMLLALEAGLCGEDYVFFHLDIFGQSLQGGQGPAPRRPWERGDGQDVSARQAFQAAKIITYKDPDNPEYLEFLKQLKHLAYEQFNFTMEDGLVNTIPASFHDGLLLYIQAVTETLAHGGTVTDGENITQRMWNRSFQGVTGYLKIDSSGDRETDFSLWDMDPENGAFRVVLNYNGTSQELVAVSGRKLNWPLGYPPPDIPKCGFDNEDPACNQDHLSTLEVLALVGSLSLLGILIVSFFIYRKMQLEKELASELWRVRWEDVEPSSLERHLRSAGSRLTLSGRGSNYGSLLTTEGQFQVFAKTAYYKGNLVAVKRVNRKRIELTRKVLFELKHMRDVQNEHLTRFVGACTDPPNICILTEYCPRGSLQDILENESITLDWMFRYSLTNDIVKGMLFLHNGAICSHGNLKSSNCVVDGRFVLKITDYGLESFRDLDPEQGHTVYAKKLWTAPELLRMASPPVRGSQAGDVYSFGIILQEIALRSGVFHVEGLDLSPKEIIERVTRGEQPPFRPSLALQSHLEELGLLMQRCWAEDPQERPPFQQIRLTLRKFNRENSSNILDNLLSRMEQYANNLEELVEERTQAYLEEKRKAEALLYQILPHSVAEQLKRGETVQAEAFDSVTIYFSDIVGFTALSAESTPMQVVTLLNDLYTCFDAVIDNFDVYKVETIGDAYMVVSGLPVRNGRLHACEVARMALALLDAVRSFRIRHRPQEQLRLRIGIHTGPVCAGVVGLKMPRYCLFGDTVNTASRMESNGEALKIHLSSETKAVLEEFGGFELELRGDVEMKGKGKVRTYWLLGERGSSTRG
Description: To test cGMP synthesis, each peptide was applied as the trans- or cis-isomer by keeping them either in the dark or pre-illuminating with UV light (λ = 365 nm) for 15 minutes, respectively.
cGMP assay in transiently transfected HEK293t cells
HEK293t cells (obtained from the Leibniz-Institute DSMZ, Braunschweig, Germany, #305, regularly mycoplasma tested) were transfected with pCMV5_GC-A 4 and YFP using Lipofectamine 2000® (Life Science, Indianapolis, IN, USA) at >80% confluency in a T25 flask according to the manufacturer’s instructions. After 24 h, cells were checked by means of YFP fluorescence for successful transfection (>70% efficiency), washed once and harvested with 1 mL Hepes-Krebs-Ringer (HKR) buffer (containing in mM: 135 NaCl, 5 KCl, 1 MgSO4, 0.4 K2HPO4, 5.5 D-glucose, 20 HEPES, 1 CaCl2, pH = 7.4) supplemented with PDE inhibitors IBMX (500 µM, Tocris, Bristol, UK, #2840) and Ro
µL of cell solution was pipetted into each well of a 384-well plate (white, flat bottom, Greiner, Frickenhausen, Germany). […] The resulting assays were incubated for 30 min before they were lysed and treated with a cGMP HTRF kit (Cisbio, Codolet, France) according to the manufacturer’s instructions. cGMP levels were read with a Omega platereader (BMG Labtech, Offenburg, Germany) after 1 h of incubation time and normalized according to the cGMP standards. […]

CCN(CC)c1ccc(/N=N/c2ccc(S(=O)(=O)NC(=O)NC3CCCCC3)cc2)cc1 [JB253]
degradation of the diazene unit [1]: not the case

c1ccc(/N=N/c2ccccc2)cc1 [unsubstituted azobenzene, azobenzene]
k obs thermal relaxation [2]: 3.58 × 10^–4 a.u. min^–1

CC[C@H](C)[C@@H]1NC(=O)[C@H](CCCNC(=N)N)NC(=O)[C@H](CC(=O)O)NC(=O)[C@H](CCSC)NC(=O)[C@H](CCCNC(=N)N)NC(=O)CNC(=O)CNC(=O)[C@H](Cc2ccccc2)NC(=O)[C@@H](NC(=O)[C@H](CO)NC(=O)[C@H](CO)NC(=O)[C@H](CCCNC(=N)N)NC(=O)[C@H](CCCNC(=N)N)NC(=O)[C@H](CC(C)C)NC(=O)[C@@H](N)CO)CSSC[C@@H](C(=O)N[C@@H](CC(N)=O)C(=O)N[C@@H](CO)C(=O)N[C@@H](Cc2ccccc2)C(=O)N[C@@H](CCCNC(=N)N)C(=O)N[C@@H](Cc2ccc(O)cc2)C(=O)O)NC(=O)CNC(=O)[C@H](CC(C)C)NC(=O)CNC(=O)[C@H](CO)NC(=O)[C@H](CCC(N)=O)NC(=O)[C@H](C)NC(=O)CNC1=O [ANP, human atrial natriuretic peptide, reference compound]
effect on amplitude of intracellular Ca2+ fluxes in beta cells, in words [3]: suppressed beta cell function
pancreatic beta cell Ca2+ spiking frequency ([3]; low (0.1 nm) but not high (10 nm) concentration, n = 5-7 islets for each concentration): stimulate increases

CC[C@H](C)[C@@H]1NC(=O)[C@H](CCCNC(=N)N)NC(=O)[C@H](CC(=O)O)NC(=O)[C@H](CCSC)NC(=O)[C@H](CCCNC(=N)N)NC(=O)CNC(=O)CNC(=O)[C@H](Cc2ccccc2)NC(=O)[C@@H](NC(=O)[C@H](CO)NC(=O)[C@H](CO)NC(=O)[C@H](CCCNC(=N)N)NC(=O)[C@H](CCCNC(=N)N)NC(=O)[C@H](CC(C)C)NC(=O)[C@@H](N)CO)CSSC[C@@H](C(=O)N[C@@H](CC(N)=O)C(=O)N[C@@H](CO)C(=O)N[C@@H](Cc2ccccc2)C(=O)N[C@@H](CCCNC(=N)N)C(=O)N[C@@H](Cc2ccc(O)cc2)C(=O)O)NC(=O)Cc2cccc(c2)/N=N/c2cccc(c2)CNC(=O)[C@H](CCC(N)=O)NC(=O)[C@H](C)NC(=O)CNC1=O [trans-TOP271]
vasodilation of pre-constricted aortic rings, in words ([4]; 400 nM): strong vasodilation
effect on amplitude of intracellular Ca2+ fluxes in beta cells, in words [3]: only a small decrease

CC[C@H](C)[C@@H]1NC(=O)[C@H](CCCNC(=N)N)NC(=O)[C@H](CC(=O)O)NC(=O)[C@H](CCSC)NC(=O)[C@H](CCCNC(=N)N)NC(=O)CNC(=O)CNC(=O)[C@H](Cc2ccccc2)NC(=O)[C@@H](NC(=O)[C@H](CO)NC(=O)[C@H](CO)NC(=O)[C@H](CCCNC(=N)N)NC(=O)[C@H](CCCNC(=N)N)NC(=O)[C@H](CC(C)C)NC(=O)[C@@H](N)CO)CSSC[C@@H](C(=O)N[C@@H](CC(N)=O)C(=O)N[C@@H](CO)C(=O)N[C@@H](Cc2ccccc2)C(=O)N[C@@H](CCCNC(=N)N)C(=O)N[C@@H](Cc2ccc(O)cc2)C(=O)O)NC(=O)Cc2cccc(c2)/N=N\c2cccc(c2)CNC(=O)[C@H](CCC(N)=O)NC(=O)[C@H](C)NC(=O)CNC1=O [cis-TOP271]
fold higher potency of cis- over trans-isomer for cGMP generation (NPR-A): 4 fold
speed of the initial vasodilation, cis- compared to trans-TOP271 ([4]; 400 nM, aortic rings): 1.5 ×
vasodilation of pre-constricted aortic rings, in words ([4]; 400 nM): potent vasodilation
vasodilation concentration-response, cis- versus trans-isomer ([4]; pre-illuminated isomers, 100 nM to 1 μM range, pre-constricted aortic rings): increased potency
restoration of beta cell function after blue light (458–482 nm) trans-isomerisation ([3]; cis-TOP271 applied, then blue light, n = 5 islets): only partial
effect on amplitude of intracellular Ca2+ fluxes in beta cells, in words [3]: robustly suppressed Ca^2+ rises

From publication PMC5471452, “Optical control of a receptor-linked guanylyl cyclase using a photoswitchable peptidic hormone” (Chemical Science, 2017)
